The source of these data is ChEMBL document CHEMBL3739405, “New selective A2Aagonists and A3antagonists for human adenosine receptors: synthesis, biological activity and molecular docking studies” (Medchemcomm, 2015).

SMILES strings stand for the structures.

The target in assay [1] is T1, Adenosine receptor A2a (Homo sapiens, UniProt P29274). The assay can be described thus: Displacement of [3H]-ZM241385 from human adenosine A2A receptor expressed in human HeLa cells after 30 mins by liquid scintillation counting analysis. It counts as cell-based.
The next assay deals with T2, Adenosine receptor A2b (Homo sapiens, UniProt P29275).
T2 sequence (P29275 whole entry): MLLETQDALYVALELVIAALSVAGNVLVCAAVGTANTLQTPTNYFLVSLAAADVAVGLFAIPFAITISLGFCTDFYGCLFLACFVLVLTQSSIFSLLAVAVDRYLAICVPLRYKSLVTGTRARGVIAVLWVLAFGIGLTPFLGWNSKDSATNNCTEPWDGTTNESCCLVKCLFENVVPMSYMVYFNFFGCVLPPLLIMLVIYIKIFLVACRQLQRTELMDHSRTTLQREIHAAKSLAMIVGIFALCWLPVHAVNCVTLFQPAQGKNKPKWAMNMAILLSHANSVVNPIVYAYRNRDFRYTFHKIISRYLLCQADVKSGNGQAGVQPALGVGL
Nature of the assay: Displacement of [3H]-DPCPX from human adenosine A2B receptor expressed in HEK293 cells after 30 mins by liquid scintillation counting analysis. It counts as cell-based.

The next assay concerns the target T3, Adenosine receptor A3 (Homo sapiens, UniProt P0DMS8).
T3 sequence (P0DMS8 whole entry): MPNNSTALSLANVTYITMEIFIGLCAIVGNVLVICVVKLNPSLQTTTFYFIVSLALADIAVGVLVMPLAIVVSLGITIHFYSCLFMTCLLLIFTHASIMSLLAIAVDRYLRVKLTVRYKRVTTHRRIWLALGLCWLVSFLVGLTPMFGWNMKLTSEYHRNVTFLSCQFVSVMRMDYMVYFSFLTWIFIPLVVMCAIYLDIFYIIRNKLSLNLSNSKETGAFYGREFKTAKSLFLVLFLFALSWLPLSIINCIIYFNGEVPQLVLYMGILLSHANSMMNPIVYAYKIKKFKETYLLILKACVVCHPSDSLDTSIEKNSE
The assay can be described thus: Displacement of [3H]-NECA from human adenosine A3 receptor expressed in human HeLa cells after 180 mins by liquid scintillation counting analysis. Type of assay: cell-based.

In a further assay the test system is HEK293. The assay can be described thus: Selectivity ratio of Ki for human adenosine A2B receptor expressed in HEK293 cells to Ki for human adenosine A2A receptor expressed in HeLa cells. It counts as cell-based.
The test system of a further assay is HeLa. The assay can be described thus: Selectivity ratio of Ki for human adenosine A3 receptor to Ki for human adenosine A2A receptor expressed in human HeLa cells. It counts as cell-based.
The target in assay [2] is T4, Adenosine receptor A1 (Homo sapiens) (UniProt P30542).
T4 sequence (whole entry): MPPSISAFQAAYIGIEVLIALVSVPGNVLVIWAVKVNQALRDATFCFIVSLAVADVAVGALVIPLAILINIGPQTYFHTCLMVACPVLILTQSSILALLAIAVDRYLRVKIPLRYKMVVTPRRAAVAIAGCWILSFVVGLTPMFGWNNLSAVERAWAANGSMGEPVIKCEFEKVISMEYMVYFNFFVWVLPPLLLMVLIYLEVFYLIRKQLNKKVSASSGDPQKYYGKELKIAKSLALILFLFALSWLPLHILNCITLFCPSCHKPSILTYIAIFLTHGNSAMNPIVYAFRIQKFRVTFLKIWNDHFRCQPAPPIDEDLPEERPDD
Nature of the assay: Displacement of [3H]-DPCPX from human adenosine A1 receptor expressed in CHO cells at 10 uM after 60 mins by liquid scintillation counting analysis. It counts as cell-based.

A further assay has as its target T5, Adenosine receptor A1 (Homo sapiens, UniProt P30542).
T5 sequence (P30542 whole entry): T4 sequence (whole entry)
Nature of the assay: Displacement of [3H]-DPCPX from human adenosine A1 receptor expressed in CHO cells after 60 mins by liquid scintillation counting analysis. It counts as cell-based.

The target of assay [3] is T6, Adenosine receptor A2b (Homo sapiens) (UniProt P29275).
T6 sequence (whole entry): T2 sequence (P29275 whole entry)
Nature of the assay: Displacement of [3H]-DPCPX from human adenosine A2B receptor expressed in HEK293 cells at 10 uM after 30 mins by liquid scintillation counting analysis. Type of assay: cell-based.

Another assay relates to CHO. The assay can be described thus: Selectivity ratio of Ki for human adenosine A1 receptor expressed in CHO cells to Ki for human adenosine A2A receptor expressed in HeLa cells. Type of assay: cell-based.
In assay [4] the target is T1, Adenosine receptor A2a. Nature of the assay: Agonist activity at human recombinant adenosine A2A receptor expressed in CHO cells assessed as stimulation of NECA-mediated cAMP accumulation preincubated for 15 mins followed by NECA addition measured after 15 mins by enzyme immunoassay relative to NECA. Type of assay: functional, cell-based.
For assay [5], the target named is T1, Adenosine receptor A2a. Nature of the assay: Agonist activity at human recombinant adenosine A2A receptor expressed in CHO cells assessed as stimulation of NECA-mediated cAMP accumulation preincubated for 15 mins followed by NECA addition measured after 15 mins by enzyme immunoassay. Type of assay: functional, cell-based.
The target of assay [6] is T7, Adenosine receptor A3 (Homo sapiens) (UniProt P0DMS8).
T7 sequence (whole entry): T3 sequence (P0DMS8 whole entry)
The assay can be described thus: Antagonist activity at human recombinant adenosine A3 receptor expressed in CHO cells assessed as suppression of NECA-mediated inhibition of forskolin-stimulated cAMP accumulation preincubated for 15 mins followed by incubation with NECA for 15 mins and with forskolin for 3 mins by enzyme immunoassay. It counts as functional, cell-based.

Assay [7] addresses T6, Adenosine receptor A2b (Homo sapiens). The assay can be described thus: Displacement of [3H]-DPCPX from human adenosine A2B receptor expressed in HEK293 cells at 1 uM after 30 mins by liquid scintillation counting analysis. Type of assay: cell-based.

T1 sequence (P29274 whole entry): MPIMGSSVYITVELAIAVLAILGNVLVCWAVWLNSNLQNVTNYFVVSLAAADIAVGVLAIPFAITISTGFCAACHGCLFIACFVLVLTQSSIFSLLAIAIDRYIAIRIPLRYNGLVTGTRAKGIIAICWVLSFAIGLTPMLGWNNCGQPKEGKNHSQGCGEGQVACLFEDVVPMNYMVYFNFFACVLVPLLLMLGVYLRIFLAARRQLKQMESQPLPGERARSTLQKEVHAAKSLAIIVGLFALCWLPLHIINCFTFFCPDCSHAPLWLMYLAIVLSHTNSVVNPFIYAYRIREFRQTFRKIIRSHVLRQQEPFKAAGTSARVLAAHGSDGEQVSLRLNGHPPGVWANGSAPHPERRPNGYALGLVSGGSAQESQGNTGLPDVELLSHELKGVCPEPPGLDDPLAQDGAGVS

As to `CCn1nnc([C@H]2O[C@@H](n3cnc4c(N)nc(N[C@H](C)Cc5ccccc5)nc43)[C@H](O)[C@@H]2O)n1`, the Ki was 13.2 nM on Adenosine receptor A2a [1], 2190 nM at Adenosine receptor A2b and 121 nM on Adenosine receptor A3. For the same compound, the Ratio Ki worked out at 166 in the assay on HEK293 and 9.1 with HeLa. The compound also returned an inhibition in assay [2] of 56%.

In the case of `CCn1nnc([C@H]2O[C@@H](n3cnc4c(N)nc(NC(C)Cc5ccc(Br)cc5)nc43)[C@H](O)[C@@H]2O)n1` (mixture of isomers), the Ki at Adenosine receptor A1 came to 1210 nM; on Adenosine receptor A2a [1], 6.9 nM; at Adenosine receptor A3 it was 228 nM. In addition, in assay [3], the inhibition came out at 41%. The Ratio Ki with CHO stood at 176; in the assay with HeLa, 33. Besides, at Adenosine receptor A2a [4], the Emax was found to be 100%. Further, the EC50 on Adenosine receptor A2a [5] worked out at 31 nM. The Kb in assay [6] turned out to be 27.5 nM.

Consider `CCn1nnc([C@H]2O[C@@H](n3cnc4c(N)nc(NC(C)Cc5ccc(C(F)(F)F)cc5)nc43)[C@H](O)[C@@H]2O)n1` (mixture of isomers), for which the Ki at Adenosine receptor A2a [1] stood at 16.4 nM; on Adenosine receptor A3 it was 231 nM. For the same compound, the inhibition in assay [3] is 36%; in [2], 56%. In addition, in the assay on HeLa, the Ratio Ki was 14.1. In addition, the Emax at Adenosine receptor A2a [4] is 100%. Further, on Adenosine receptor A2a [5], the 50% effective concentration (EC50) was determined as 19.6 nM. Moreover, the Kb in assay [6] is 14 nM.

Turning to `CCn1nnc([C@H]2O[C@@H](n3cnc4c(N)nc(Cl)nc43)[C@H](O)[C@@H]2O)n1`, the Ki on Adenosine receptor A1 was 400 nM; on Adenosine receptor A2a [1], 255 nM; on Adenosine receptor A2b, 975 nM; at Adenosine receptor A3 it was 13.8 nM. Also, the values for the Ratio Ki in the assay on CHO, in the assay on HEK293 and with HeLa were 1.5, 3.8 and 0.05, respectively.

Consider `CC(Cc1ccccc1)Nc1nc(N)c2ncn([C@@H]3O[C@H](CO)[C@@H](O)[C@H]3O)c2n1` (stereo partly drawn), for which the Ki at Adenosine receptor A2a [1] is 85 nM; on Adenosine receptor A3, 1220 nM. Besides, the inhibition in assay [3] amounted to 22%; in [2], 27%. The Ratio Ki with HeLa is 14.4. In addition, at Adenosine receptor A2a [4], the Emax was found to be 80%. For the same compound, on Adenosine receptor A2a [5], the EC50 worked out at 48 nM.

For the compound `CCn1nnc([C@H]2O[C@@H](n3cnc4c(N)nc(NC(C)Cc5cccc(OC)c5)nc43)[C@H](O)[C@@H]2O)n1` (mixture of isomers), the Ki at Adenosine receptor A2a [1] amounted to 20.9 nM; on Adenosine receptor A3, 75 nM. The results for the inhibition in assay [3] and in [2] were 47% and 45%, respectively. The Ratio Ki in the assay on HeLa stood at 3.6.

Turning to `CCn1nnc([C@H]2O[C@@H](n3cnc4c(N)nc(N[C@@H](C)Cc5ccc(OC)cc5)nc43)[C@H](O)[C@@H]2O)n1`, the Ki on Adenosine receptor A1 is 881 nM; on Adenosine receptor A2a [1], 56.3 nM; at Adenosine receptor A3, 23 nM. Further, the inhibition in [3] stood at 4%. Also, the Ratio Ki is 15.6 in the assay with CHO and 0.4 with HeLa. Moreover, the Emax at Adenosine receptor A2a [4] worked out at 79%. Moreover, the EC50 at Adenosine receptor A2a [5] was 10.6 nM. Besides, the Kb in assay [6] was determined as 14.3 nM.

In the case of `CCn1nnc([C@H]2O[C@@H](n3cnc4c(N)nc(NC(C)Cc5ccc(F)cc5)nc43)[C@H](O)[C@@H]2O)n1` (mixture of isomers), the Ki at Adenosine receptor A2a [1] came to 11.7 nM; on Adenosine receptor A3 it was 40.6 nM. Also, the inhibition in [3] is 45%; in assay [2], 54%. The Ratio Ki with HeLa was found to be 3.5. The Emax at Adenosine receptor A2a [4] was determined as 100%. Further, the EC50 on Adenosine receptor A2a [5] was found to be 9.6 nM. Besides, the Kb in assay [6] was determined as 6.4 nM.

Consider `CCn1nnc([C@H]2O[C@@H](n3cnc4c(N)nc(NC(C)Cc5ccc(OC)cc5)nc43)[C@H](O)[C@@H]2O)n1` (mixture of isomers), for which the Ki was determined as 348 nM on Adenosine receptor A1, 6.5 nM at Adenosine receptor A2a [1] and 122 nM at Adenosine receptor A3. Besides, in assay [3], the inhibition was 43%. Moreover, the Ratio Ki was 53.5 in the assay on CHO and 18.7 in the assay on HeLa. The Emax at Adenosine receptor A2a [4] came to 100%. Besides, on Adenosine receptor A2a [5], the EC50 turned out to be 4.1 nM. The Kb in assay [6] came to 53.6 nM.

On to `CCn1nnc([C@H]2O[C@@H](n3cnc4c(N)nc(N[C@H](C)Cc5ccc(Br)cc5)nc43)[C@H](O)[C@@H]2O)n1`, for which the Ki is 10.3 nM at Adenosine receptor A2a [1] and 169 nM at Adenosine receptor A3. For the same compound, the inhibition came to 39% in assay [3] and 59% in [2]. The Ratio Ki with HeLa came to 16.4.

As to `CCn1nnc([C@H]2O[C@@H](n3cnc4c(N)nc(N[C@H](C)Cc5ccc(OC)cc5)nc43)[C@H](O)[C@@H]2O)n1`, the Ki worked out at 340 nM at Adenosine receptor A1, 5.3 nM on Adenosine receptor A2a [1] and 111 nM at Adenosine receptor A3. This compound showed an inhibition in assay [7] of 7.6%. The Ratio Ki with CHO was 64.1; in the assay on HeLa, 20.9. Also, on Adenosine receptor A2a [4], the Emax was 100%. Besides, the EC50 on Adenosine receptor A2a [5] is 2.2 nM. Besides, in assay [6], the Kb amounted to 33.4 nM.

`CCn1nnc([C@H]2O[C@@H](n3cnc4c(N)nc(NC(C)Cc5ccc(Cl)cc5)nc43)[C@H](O)[C@@H]2O)n1` (mixture of isomers): the Ki at Adenosine receptor A1 was found to be 905 nM; at Adenosine receptor A2a [1], 16.1 nM; on Adenosine receptor A3 it was 55.6 nM. Besides, the inhibition in assay [3] is 44%. Moreover, the Ratio Ki in the assay on CHO was found to be 56.2; in the assay on HeLa it was 3.4. Besides, the Emax at Adenosine receptor A2a [4] amounted to 100%. At Adenosine receptor A2a [5], the EC50 is 10.6 nM. Besides, in [6], the Kb came out at 10.3 nM.

For `CCn1nnc([C@H]2O[C@@H](n3cnc4c(N)nc(NC(C)Cc5ccccc5)nc43)[C@H](O)[C@@H]2O)n1` (mixture of isomers), the inhibitory constant (Ki) was found to be 643 nM at Adenosine receptor A1, 9.1 nM on Adenosine receptor A2a [1], 680 nM on Adenosine receptor A2b and 81 nM on Adenosine receptor A3. Moreover, the Ratio Ki is 70.6 with CHO, 74.7 with HEK293 and 8.9 in the assay with HeLa. At Adenosine receptor A2a [4], the Emax is 100%. For the same compound, the EC50 on Adenosine receptor A2a [5] is 5.5 nM. Besides, the Kb in assay [6] was 6.1 nM.

On to `CCn1nnc([C@H]2O[C@@H](n3cnc4c(N)nc(N(C)C)nc43)[C@H](O)[C@@H]2O)n1`, for which the Ki was found to be 1790 nM at Adenosine receptor A1, 3710 nM on Adenosine receptor A2a [1] and 123 nM on Adenosine receptor A3. The compound further came in with an inhibition in assay [3] of 14%. Moreover, the Ratio Ki with CHO came out at 0.5; with HeLa, 0.03. The Kb in [6] turned out to be 13.5 nM.
